Measurements published in PubChem BioAssay (NCI).
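Exposure lasted 48 hours, with cells grown in 96-well plates and compounds tested at five concentrations. TGI marks complete inhibition of growth.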

Assays:
Assay in all cases: DTP human tumour cell line panel, 48 h
[1] = system: LOX IMVI melanoma
[2] = system: NCI-H226 lung
[3] = system: OVCAR-8 ovarian
[4] = system: SK-MEL-2 melanoma
[5] = system: NCI-H23 lung
[6] = system: ACHN renal
[7] = system: 786-0 renal
[8] = system: COLO 205 colon
[9] = system: TK-10 renal
[10] = system: SN12C renal
[11] = system: HOP-92 NSCLC
[12] = system: SK-OV-3 ovarian
[13] = system: CAKI-1 renal
[14] = system: MCF7 breast
[15] = system: CCRF-CEM leukemia
[16] = system: DU-145 prostate
[17] = system: MALME-3M melanoma
[18] = system: HCT-116 colon
[19] = system: HOP-62 NSCLC
[20] = system: SF-539 CNS
[21] = system: SR leukemia
[22] = system: UACC-62 melanoma
[23] = system: SNB-75 CNS
[24] = system: SF-295 CNS
[25] = system: K-562 leukemia
[26] = system: MDA-MB-435
[27] = system: OVCAR-3 ovarian
[28] = system: BT-549 breast
[29] = system: NCI-H522 lung
[30] = system: SF-268 CNS
[31] = system: EKVX NSCLC
[32] = system: HT29 colon
[33] = system: OVCAR-4 ovarian
[34] = system: MDA-MB-231 breast
[35] = system: A498 renal
[36] = system: IGROV1 ovarian
[37] = system: SK-MEL-5 melanoma
[38] = system: NCI/ADR-RES ovarian
[39] = system: HCT-15 colon
[40] = system: HCC-2998 colon
[41] = system: KM12 colon
[42] = system: MDA-N
[43] = system: HL-60(TB) leukemia
[44] = system: UO-31 renal
[45] = system: M14 melanoma
[46] = system: SK-MEL-28 melanoma
[47] = system: HS 578T breast
[48] = system: T-47D breast
[49] = system: SNB-19 CNS
[50] = system: MOLT-4 leukemia
[51] = system: OVCAR-5 ovarian
[52] = system: RXF 393 renal
[53] = system: U251 CNS
[54] = system: PC-3 prostate
[55] = system: A549 NSCLC
[56] = system: NCI-H460 lung
[57] = system: SW-620 colon
[58] = system: UACC-257 melanoma
[59] = system: RPMI-8226 leukemia

With `Cc1noc(NS(=O)(=O)c2ccc(NC(=O)c3ccc4nc5ccccc5c(Nc5ccc(S(=O)(=O)Nc6onc(C)c6C)cc5)c4c3)cc2)c1C` as the compound, how does the TGI [1] read?
Its TGI is 61.3 µM.

What about the TGI [2] of the same compound?
The TGI was > 100 µM.

And the TGI [3]?
Its TGI is > 100 µM.

And the TGI [4]?
Its TGI is > 100 µM.

And the TGI [5]?
Its TGI is > 100 µM.

And the TGI [6]?
The TGI was > 100 µM.

And the TGI [7]?
Its TGI is > 100 µM.

What about the TGI [8] of the same compound?
Its TGI is > 100 µM.

And the TGI [9]?
Its TGI is > 100 µM.

What about the TGI [10] of the same compound?
Its TGI is > 100 µM.

What about the TGI [11] of the same compound?
Its TGI is > 100 µM.

And the TGI [12]?
The TGI was > 100 µM.

And the TGI [13]?
The TGI was > 100 µM.

And the TGI [14]?
The TGI was > 100 µM.

What about the TGI [15] of the same compound?
The TGI was > 100 µM.

What about the TGI [16] of the same compound?
Its TGI is > 100 µM.

And the TGI [17]?
The TGI was > 100 µM.

What about the TGI [18] of the same compound?
The TGI was > 100 µM.

What about the TGI [19] of the same compound?
The TGI was > 100 µM.

And the TGI [20]?
The TGI was > 100 µM.

What about the TGI [21] of the same compound?
The TGI was > 100 µM.

What about the TGI [22] of the same compound?
The TGI was > 100 µM.

And the TGI [23]?
The TGI was > 100 µM.

What about the TGI [24] of the same compound?
The TGI was > 100 µM.

What about the TGI [25] of the same compound?
Its TGI is 60.7 µM.

And the TGI [26]?
The TGI was > 100 µM.

What about the TGI [27] of the same compound?
The TGI was > 100 µM.

What about the TGI [28] of the same compound?
Its TGI is 88.8 µM.

What about the TGI [29] of the same compound?
Its TGI is > 100 µM.

What about the TGI [30] of the same compound?
The TGI was > 100 µM.

And the TGI [31]?
Its TGI is > 100 µM.

What about the TGI [32] of the same compound?
The TGI was > 100 µM.

What about the TGI [33] of the same compound?
The TGI was > 100 µM.

What about the TGI [34] of the same compound?
The TGI was 80.8 µM.

What about the TGI [35] of the same compound?
The TGI was > 100 µM.

And the TGI [36]?
The TGI was > 100 µM.

And the TGI [37]?
Its TGI is > 100 µM.

What about the TGI [38] of the same compound?
The TGI was > 100 µM.

And the TGI [39]?
Its TGI is > 100 µM.

What about the TGI [40] of the same compound?
Its TGI is > 100 µM.

And the TGI [41]?
Its TGI is > 100 µM.

What about the TGI [42] of the same compound?
The TGI was > 100 µM.

And the TGI [43]?
The TGI was > 100 µM.

And the TGI [44]?
Its TGI is > 100 µM.

And the TGI [45]?
Its TGI is > 100 µM.

And the TGI [46]?
Its TGI is > 100 µM.

What about the TGI [47] of the same compound?
Its TGI is > 100 µM.

What about the TGI [48] of the same compound?
The TGI was > 100 µM.

What about the TGI [49] of the same compound?
Its TGI is > 100 µM.

What about the TGI [50] of the same compound?
The TGI was > 100 µM.

What about the TGI [51] of the same compound?
Its TGI is > 100 µM.

And the TGI [52]?
The TGI was > 100 µM.

What about the TGI [53] of the same compound?
Its TGI is > 100 µM.

What about the TGI [54] of the same compound?
The TGI was > 100 µM.

What about the TGI [55] of the same compound?
Its TGI is > 100 µM.

What about the TGI [56] of the same compound?
Its TGI is > 100 µM.

What about the TGI [57] of the same compound?
The TGI was > 100 µM.

And the TGI [58]?
Its TGI is > 100 µM.

What about the TGI [59] of the same compound?
Its TGI is > 100 µM.

How did the TGI [1] turn out when `OCCCNCC(O)c1ccc(OCc2ccccc2)c(OCc2ccccc2)c1` (stereo not drawn) was run?
The TGI was 13.7 µM.

And the TGI [2]?
Its TGI is 29.7 µM.

And the TGI [3]?
The TGI was 26.6 µM.

What about the TGI [4] of the same compound?
The TGI was 15.1 µM.

What about the TGI [5] of the same compound?
Its TGI is 33.3 µM.

And the TGI [6]?
Its TGI is 23.8 µM.

What about the TGI [7] of the same compound?
Its TGI is 14.3 µM.

And the TGI [8]?
The TGI was 10.2 µM.

And the TGI [9]?
The TGI was 15.8 µM.

What about the TGI [10] of the same compound?
Its TGI is 29.7 µM.

And the TGI [11]?
Its TGI is 24.1 µM.

What about the TGI [12] of the same compound?
Its TGI is 24.4 µM.

What about the TGI [13] of the same compound?
The TGI was 32.5 µM.

And the TGI [14]?
The TGI was 16 µM.

And the TGI [15]?
The TGI was 17.5 µM.

And the TGI [16]?
The TGI was 30.8 µM.

What about the TGI [17] of the same compound?
Its TGI is 29.7 µM.

What about the TGI [18] of the same compound?
Its TGI is 18.3 µM.

What about the TGI [19] of the same compound?
Its TGI is 28.8 µM.

What about the TGI [20] of the same compound?
The TGI was 27.2 µM.

And the TGI [21]?
The TGI was 28 µM.

What about the TGI [22] of the same compound?
Its TGI is 42.8 µM.

What about the TGI [23] of the same compound?
The TGI was 14.1 µM.

And the TGI [24]?
Its TGI is 20.8 µM.

What about the TGI [25] of the same compound?
Its TGI is 33.5 µM.

And the TGI [26]?
Its TGI is 15.2 µM.

What about the TGI [27] of the same compound?
Its TGI is 30.4 µM.

And the TGI [28]?
The TGI was 31.9 µM.

What about the TGI [29] of the same compound?
Its TGI is 30 µM.

What about the TGI [30] of the same compound?
Its TGI is 30.9 µM.

What about the TGI [31] of the same compound?
The TGI was 30.4 µM.

And the TGI [32]?
The TGI was 16 µM.

And the TGI [33]?
Its TGI is 18.3 µM.

What about the TGI [34] of the same compound?
The TGI was 28.7 µM.

And the TGI [35]?
The TGI was 25.8 µM.

And the TGI [36]?
The TGI was 23.4 µM.

What about the TGI [37] of the same compound?
The TGI was 13.5 µM.

What about the TGI [38] of the same compound?
Its TGI is 37.2 µM.

What about the TGI [39] of the same compound?
The TGI was 27.5 µM.

And the TGI [40]?
Its TGI is 10 µM.

And the TGI [41]?
Its TGI is 26 µM.

What about the TGI [42] of the same compound?
Its TGI is 21.6 µM.

What about the TGI [43] of the same compound?
The TGI was 21.4 µM.

What about the TGI [44] of the same compound?
The TGI was 28.8 µM.

And the TGI [45]?
The TGI was 31.5 µM.

And the TGI [46]?
The TGI was 20.4 µM.

And the TGI [47]?
The TGI was 35.6 µM.

And the TGI [48]?
The TGI was 34.4 µM.

What about the TGI [49] of the same compound?
Its TGI is 38.5 µM.

What about the TGI [50] of the same compound?
Its TGI is 19.2 µM.

And the TGI [51]?
Its TGI is 29.5 µM.

What about the TGI [52] of the same compound?
The TGI was 42.7 µM.

What about the TGI [53] of the same compound?
Its TGI is 23.1 µM.

And the TGI [54]?
The TGI was 25.4 µM.

And the TGI [55]?
The TGI was 26.3 µM.

What about the TGI [56] of the same compound?
Its TGI is 15.8 µM.

And the TGI [57]?
The TGI was 15.8 µM.

What about the TGI [58] of the same compound?
Its TGI is 25.6 µM.

And the TGI [59]?
The TGI was 19.9 µM.
